Experimental data from PMC11252418, “Specific glycine-dependent enzyme motion determines the potency of conformation selective inhibitors of threonyl-tRNA synthetase” (Communications Biology, 2024).
Read-outs that look alike come from different tables or passages of the source.

How the values were obtained:
[1] = target: T1, EcThrRS_A316N (Escherichia coli, UniProt P0A8M3, A316N); test: Thermal shift assay (TSA); format: binding
T1 construct: The E. coli ThrRS (residues 242-642, Supplementary Note 1) wild type; 6xHis (C); made in house; host or cells: E. coli BL21 (DE3)
Description: (§1) The EcThrRS_WT and L489M/G463S/G463S_Q484A/G463A/A316N mutant proteins, ObaO_WT and ObaO_S464G mutant proteins were prepared at 2 μM in buffer containing 25 mM Tris-HCl pH 7.5, 200 mM NaCl, and 20 μM OB (GlpBio, US) or BN (GlpBio, US) or ddH2O in equal volumes since the compounds were diluted with ddH2O to 1 mM as stocks. […] SYPRO orange dye (Sigma, USA) was diluted in assay buffer containing 25 mM Tris-HCl pH 7.5 and 200 mM NaCl to a 40× concentration, and was added to the mixture to a final 4× concentration. Aliquots (20 μL) were added to a 96-well PCR plate. After complete mixing, the final solutions were heated from 25 to 95 °C at a rate of 0.015 °C/s, and fluorescence signals were monitored by QuantStudio 3 (Applied Biosystems by Thermo Fisher Scientific, USA). The melting temperature (Tm) was calculated through a previously established method[56],[57].

[2] = target: T2, EcThrRS_G463S (Escherichia coli, UniProt P0A8M3, G463S); test: Thermal shift assay (TSA); format: binding
T2 construct: The E. coli ThrRS (residues 242-642, Supplementary Note 1) wild type; 6xHis (C); made in house; host or cells: E. coli BL21 (DE3)
Description: as §1

[3] = target: T3, EcThrRS_G463S_Q484A (Escherichia coli, UniProt P0A8M3, G463S/Q484A); test: Thermal shift assay (TSA); format: binding
T3 construct: The E. coli ThrRS (residues 242-642, Supplementary Note 1) wild type; 6xHis (C); made in house; host or cells: E. coli BL21 (DE3)
Description: as §1

[4] = target: T4, EcThrRS_L489M (Escherichia coli, UniProt P0A8M3, L489M); test: Thermal shift assay (TSA); format: binding
T4 construct: The E. coli ThrRS (residues 242-642, Supplementary Note 1) wild type; 6xHis (C); made in house; host or cells: E. coli BL21 (DE3)
Description: as §1

[5] = target: T5, EcThrRS_G463A (Escherichia coli, UniProt P0A8M3, G463A); test: Thermal shift assay (TSA); format: binding
T5 construct: The E. coli ThrRS (residues 242-642, Supplementary Note 1) wild type; 6xHis (C); made in house; host or cells: E. coli BL21 (DE3)
Description: as §1

[6] = test system: in vitro translation system of Kluyveromyces marxianus; format: biochemical; settings: K. marxianus extract, rebuttal letter
Text: lactone produced by Pseudomonas fluorescens. Taxonomy, fermentation and biological properties. The Journal of antibiotics 37, 802-803 (1984).
28 Kumar, P. et al. l-Threonine Transaldolase Activity Is Enabled by a Persistent Catalytic Intermediate. ACS chemical biology 16, 86-95 (2021).
29 Schaffer, J. E., Reck, M. R., Prasad, N. K. & Wencewicz, T. A. beta-Lactone formation during product release from a nonribosomal peptide synthetase. Nat Chem Biol 13, […]
30 Scott, T. A., Heine, D., Qin, Z. & Wilkinson, B. An L-threonine transaldolase is required for L-threo-beta-hydroxy-alpha-amino acid assembly during obafluorin biosynthesis. Nature communications 8, 15935 (2017).
31 Kreitler, D. F., Gemmell, E. M., Schaffer, J. E., Wencewicz, T. A. & Gulick, A. M. The structural basis of N-acyl-alpha-amino-beta-lactone formation catalyzed by a nonribosomal peptide synthetase. Nature communications 10, 3432 (2019).
32 Jones, M. A. et al. Discovery of L-threonine transaldolases for enhanced biosynthesis of beta-hydroxylated amino acids. Communications biology 6, 929 (2023).
33 Batey, S. F. D. et al. The catechol moiety of obafluorin is essential for antibacterial
34 Qiao, H. et al. Tyrosine-targeted covalent inhibition of a tRNA synthetase aided by zinc ion. Communications biology 6, 107 (2023).
Whether OB has inhibitory activity against eukaryotic ThrRS is also a great question. […]

[7] = 2 μM protein, 20 μM compound, mean n = 4, read-out: ΔTm (increase of Tm)

T5 sequence (P0A8M3 242-642 G463A): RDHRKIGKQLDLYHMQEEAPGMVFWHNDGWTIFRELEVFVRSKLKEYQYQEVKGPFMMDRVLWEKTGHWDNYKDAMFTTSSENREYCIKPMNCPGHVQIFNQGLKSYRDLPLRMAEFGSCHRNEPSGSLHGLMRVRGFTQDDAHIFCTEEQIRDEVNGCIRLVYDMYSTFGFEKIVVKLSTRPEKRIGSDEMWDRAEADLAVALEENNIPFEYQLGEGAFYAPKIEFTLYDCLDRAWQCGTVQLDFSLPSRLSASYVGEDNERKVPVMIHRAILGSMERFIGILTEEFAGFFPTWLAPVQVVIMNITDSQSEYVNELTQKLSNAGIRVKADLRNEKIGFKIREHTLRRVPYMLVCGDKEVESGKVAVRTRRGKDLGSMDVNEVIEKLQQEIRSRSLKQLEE
T3 sequence (P0A8M3 242-642 G463S/Q484A): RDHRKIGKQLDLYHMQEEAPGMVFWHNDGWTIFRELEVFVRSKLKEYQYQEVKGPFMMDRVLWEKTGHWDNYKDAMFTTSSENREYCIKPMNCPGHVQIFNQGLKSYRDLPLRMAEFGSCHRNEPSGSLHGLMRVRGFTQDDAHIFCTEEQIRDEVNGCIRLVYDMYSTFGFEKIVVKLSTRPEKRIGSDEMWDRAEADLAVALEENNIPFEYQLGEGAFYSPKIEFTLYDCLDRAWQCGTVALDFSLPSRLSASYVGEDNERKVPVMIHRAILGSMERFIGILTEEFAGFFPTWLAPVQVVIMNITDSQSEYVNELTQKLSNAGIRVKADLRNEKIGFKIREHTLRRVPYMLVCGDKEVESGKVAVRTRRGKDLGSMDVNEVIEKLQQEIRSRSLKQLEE
T4 sequence (P0A8M3 242-642 L489M): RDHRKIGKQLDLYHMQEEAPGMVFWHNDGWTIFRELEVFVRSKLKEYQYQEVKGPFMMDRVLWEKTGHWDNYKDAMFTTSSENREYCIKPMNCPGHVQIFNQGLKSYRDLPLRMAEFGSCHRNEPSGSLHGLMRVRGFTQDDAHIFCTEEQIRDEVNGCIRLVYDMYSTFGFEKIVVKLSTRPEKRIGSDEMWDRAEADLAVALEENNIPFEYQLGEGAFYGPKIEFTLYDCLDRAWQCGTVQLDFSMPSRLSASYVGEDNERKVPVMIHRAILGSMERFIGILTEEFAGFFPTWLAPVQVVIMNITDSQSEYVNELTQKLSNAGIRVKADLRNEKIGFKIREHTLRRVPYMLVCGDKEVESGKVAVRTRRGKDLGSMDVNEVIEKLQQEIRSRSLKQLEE
T1 sequence (P0A8M3 242-642 A316N): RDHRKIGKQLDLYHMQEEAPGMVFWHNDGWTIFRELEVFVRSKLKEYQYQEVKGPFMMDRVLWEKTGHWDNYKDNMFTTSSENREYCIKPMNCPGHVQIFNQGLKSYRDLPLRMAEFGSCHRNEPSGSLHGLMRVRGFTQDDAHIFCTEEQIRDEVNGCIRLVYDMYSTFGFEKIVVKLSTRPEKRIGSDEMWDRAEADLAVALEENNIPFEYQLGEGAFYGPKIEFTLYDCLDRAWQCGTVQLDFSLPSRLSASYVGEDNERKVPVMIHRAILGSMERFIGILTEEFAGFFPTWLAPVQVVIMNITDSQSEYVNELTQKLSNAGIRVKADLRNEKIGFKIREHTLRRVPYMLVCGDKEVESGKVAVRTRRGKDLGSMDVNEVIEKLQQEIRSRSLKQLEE
T2 sequence (P0A8M3 242-642 G463S): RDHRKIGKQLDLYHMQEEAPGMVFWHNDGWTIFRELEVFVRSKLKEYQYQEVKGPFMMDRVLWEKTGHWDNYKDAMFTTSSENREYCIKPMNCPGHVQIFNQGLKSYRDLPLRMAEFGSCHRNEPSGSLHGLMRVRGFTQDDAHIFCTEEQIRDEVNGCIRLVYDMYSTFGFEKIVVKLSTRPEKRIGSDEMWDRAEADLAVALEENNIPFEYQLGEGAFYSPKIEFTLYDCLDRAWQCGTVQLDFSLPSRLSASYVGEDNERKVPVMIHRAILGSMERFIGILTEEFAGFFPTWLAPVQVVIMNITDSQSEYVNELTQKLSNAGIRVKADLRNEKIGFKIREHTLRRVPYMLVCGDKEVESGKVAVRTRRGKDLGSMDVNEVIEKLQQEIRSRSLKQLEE

O=C(N[C@@H]1C(=O)O[C@@H]1Cc1ccc([N+](=O)[O-])cc1)c1cccc(O)c1O [OB, Obafluorin]
ΔTm at 20 µM [1, 7]: 33.4 °C
ΔTm at 20 µM ([1]; source data sheet Fig.S4a, ThrRS_A316N, read-out: ΔTm, single replicates): 33.4 °C
ΔTm at 20 µM [2, 7]: 13.3 °C
ΔTm at 20 µM ([2]; source data sheet Fig.2a, ThrRS_G463S, read-out: ΔTm, single replicates): 16.1 °C
ΔTm at 20 µM [3, 7]: 17.2 °C
ΔTm less than the effect of 36j ([3]; difference OB vs 36j on EcThrRS_G463S_Q484A): 10 °C
ΔTm at 20 µM ([3]; source data sheet Fig.3c, ThrRS_G463S_Q484A, read-out: ΔTm, single replicates): 17.5 °C
ΔTm at 20 µM [4, 7]: 22.6 °C
ΔTm at 20 µM ([4]; source data sheet Fig.2a, ThrRS_L489M, read-out: ΔTm, single replicates): 23 °C
ΔTm at 20 µM [5, 7]: 19.5 °C
ΔTm less than that of EcThrRS_WT ([5]; EcThrRS_G463A vs WT, same compound): 14.0 °C
ΔTm less than that increased by 36j ([5]; difference OB vs 36j on EcThrRS_G463A): 1.3 °C
ΔTm at 20 µM ([5]; source data sheet Fig.5a, ThrRS_G463A, read-out: ΔTm, single replicates): 20.4 °C
IC50 [6]: ~9 µM
